Where “and” joins values, the source holds several entries; their conditions need not be identical. Identical values can stand only once. Entries after “also recorded” stand apart in the source; their conditions may differ. Counter-ions that a name gives are not always drawn.
Key:
[1] = molecular target: T1, Btk (Homo sapiens, UniProt Q06187); test: Kinase enzymology assay (HTRF KinEase); format: biochemical; set-up: purchased Carna Biosciences; settings: enzymatic assay; values marked * are a single run of duplicates, all others are means of two individual measurements
Experimental: Kinases were purchased from Carna Biosciences. Kinase enzymology assays were performed according to the protocols specified for the HTRF® KinEase™ assays sold by Cisbio Bioassays.
Target sequence in this assay (Q06187 whole entry): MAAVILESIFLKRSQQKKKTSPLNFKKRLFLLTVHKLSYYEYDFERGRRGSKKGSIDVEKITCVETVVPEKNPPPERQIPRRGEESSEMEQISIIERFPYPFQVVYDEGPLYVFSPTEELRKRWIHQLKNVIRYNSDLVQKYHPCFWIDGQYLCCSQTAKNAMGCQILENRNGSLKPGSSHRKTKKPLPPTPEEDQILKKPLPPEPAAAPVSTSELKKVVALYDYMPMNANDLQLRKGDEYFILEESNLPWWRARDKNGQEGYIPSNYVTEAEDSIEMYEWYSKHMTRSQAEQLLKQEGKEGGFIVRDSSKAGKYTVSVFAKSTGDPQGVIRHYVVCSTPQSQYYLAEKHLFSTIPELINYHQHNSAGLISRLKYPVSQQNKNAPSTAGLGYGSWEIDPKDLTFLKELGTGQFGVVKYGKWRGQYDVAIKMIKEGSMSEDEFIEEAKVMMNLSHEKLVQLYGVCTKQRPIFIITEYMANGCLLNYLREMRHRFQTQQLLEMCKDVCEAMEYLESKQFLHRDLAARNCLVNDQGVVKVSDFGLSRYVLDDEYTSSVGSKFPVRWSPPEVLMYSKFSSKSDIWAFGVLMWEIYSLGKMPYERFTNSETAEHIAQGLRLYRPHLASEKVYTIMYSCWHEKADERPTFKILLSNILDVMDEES

[2] = molecular target: T1, Btk; test: Competition assay: blocking of probe 14 labeling of Btk in cells; format: cell-based; settings: inhibitor 1 μM for 1 hour, then 0.5 μM probe 14 for 2 hours, OCI-Ly7 cells
Experimental: Competition assay. LY7 cells were preincubated with the compounds (1 μM) for 1 h before labeling with probe 14 under the proper time and concentration conditions. Then, the cells were lysed and analyzed as described above. Supplementary figure S1: competition experiment in OCI-Ly7 cells (a) and Jurkat cells (b). 1.5×10^6 cells were pre-incubated with compounds for 1h at 1μM before labeling with probe 14 for 2h at 0.5μM. Then, lysed, quantified and analyzed by SDS/PAGE and fluorescent gel scanning (fluorescence, CY2).
Target sequence in this assay (Q06187 whole entry): as above

[3] = molecular target: T1, Btk; test: Kinetic study of Btk inhibitors (kinact/Ki, HTRF KinEase); format: biochemical; set-up: purchased Carna Biosciences; settings: 0.5 nM Btk, room temperature, preincubation 0-20 min
Experimental: The kinase assays were performed at room temperature. The compounds with serial dilution in DMSO were added into reaction buffer with 0.5 nM Btk, incubating with different periods of time (0 min, 4 min, 8 min, 12 min, 16 min, and 20 min). Enzyme reaction was started by adding ATP and substrate to the reaction mixture. The enzyme activity was measured with HTRF® KinEase™ assays. The data analysis was guided by the book, Enzyme Kinetics by Hans Bisswanger[16].
Target sequence in this assay (Q06187 whole entry): as above

[4] = molecular target: T1, Btk; test: Cellular labeling of Btk by probe 14 in OCI-Ly7 cells; format: cell-based
Experimental: Labeling of Btk by probe 14. A total of 1.5 × 10^6 cells were treated with probe 14 at 1 μM for different lengths of times (5 min, 10 min, 20 min, 30 min, 1 h, 2 h, 3 h, or 4 h), washed, lysed in cell lysis buffer (Beyotime) containing 1 mM PMSF and 10 mM NaF (Invitrogen), and centrifuged. The sample protein concentrations were quantified using a NanoDrop 2000 spectrophotometer, and the samples were adjusted to the same concentration then analyzed by SDS/PAGE and fluorescent gel scanning (fluorescence, CY2). The gel was then blotted, and the total Btk levels were detected by a standard Western blot. The concentration course labeling procedure was similar to that for the time course labeling.
Target sequence in this assay (Q06187 whole entry): as above

[5] = test system: Jurkat cells; test: Cellular labeling by probe 14 in Jurkat cells (T-cell line that does not express Btk); format: cell-based; settings: T-cell line without Btk (Supplementary Figure S1)
Experimental: Supplementary figure S1: competition experiment in OCI-Ly7 cells (a) and Jurkat cells (b). 1.5×10^6 cells were pre-incubated with compounds for 1h at 1μM before labeling with probe 14 for 2h at 0.5μM. Then, lysed, quantified and analyzed by SDS/PAGE and fluorescent gel scanning (fluorescence, CY2).

[6] = molecular target: T1, Btk; test: Recombinant protein labeling assay; format: binding; settings: recombinant Btk (0.5 μg)
Source text: […] The gel was then blotted, and the total Btk levels were detected by standard […]. The concentration course labeling procedure was similar to that for the time course labeling.
Target sequence in this assay (Q06187 whole entry, species assumed): as the sequence (Q06187 whole entry) above

Row | Compound | IC50 [1] | other results
1 | C=CC(=O)Nc1cccc(Nc2ncc(NC(=O)c3cc(NC(=O)c4cccc(C(F)(F)F)c4)ccc3C)cn2)c1 [Compound 2] |  | Blocking of the labeling of Btk by probe 14 [2]: effectively blocked; also recorded: completely competed off
2 | C=CC(=O)NCCC(=O)Nc1cccc(Nc2ncc(NC(=O)c3cc(NC(=O)c4cccc(C(F)(F)F)c4)ccc3C)cn2)c1 [Compound 3] | 26.7 ± 5.74 nM | 
3 | C=CC(=O)N[C@@H](C)C(=O)Nc1cccc(Nc2ncc(NC(=O)c3cc(NC(=O)c4cccc(C(F)(F)F)c4)ccc3C)cn2)c1 [Compound 5] | 44 ± 8.13 nM | 
4 | C=CC(=O)N[C@@H](CCCCN)C(=O)Nc1cccc(Nc2ncc(NC(=O)c3cc(NC(=O)c4cccc(C(F)(F)F)c4)ccc3C)cn2)c1 [Compound 11, Trifluoroacetate of (S)-N-(2-((3-(2-acrylamido-6-aminohexanamido)phenyl)amino)pyramidin-5-yl)-2-methyl-5-(3-(trifluoromethyl)benzamido)benzamide] | 63 nM and 62.8 nM | kinact/KI [3]: 135000 ± 4e+08 M⁻¹ s⁻¹
5 | C=CC(=O)N[C@@H](Cc1cnc[nH]1)C(=O)Nc1cccc(Nc2ncc(NC(=O)c3cc(NC(=O)c4cccc(C(F)(F)F)c4)ccc3C)cn2)c1 [Compound 12] | 64.2 ± 4.95 nM | 
6 | C#CCCC(=O)NCCCC[C@H](NC(=O)C=C)C(=O)Nc1cccc(Nc2ncc(NC(=O)c3cc(NC(=O)c4cccc(C(F)(F)F)c4)ccc3C)cn2)c1 [Compound 13] | 38 nM and 37.5 nM | kinact/KI [3]: 75000 ± 8e+08 M⁻¹ s⁻¹
7 | C=CC(=O)N[C@@H](CCCCNC(=O)CCC1=[N+]2C(=Cc3c(C)cc(C)n3[B-]2(F)F)C=C1)C(=O)Nc1cccc(Nc2ncc(NC(=O)c3cc(NC(=O)c4cccc(C(F)(F)F)c4)ccc3C)cn2)c1 [Compound 14, (S)-3-(3-((5-acrylamido-6-((3-((5-(2-methyl-5-(3-(trifluoromethyl)benzamido)benzamido)pyrimidin-2-yl)amino)phenyl)amino)-6-oxohexyl)amino)-3-oxopropyl)-5,5-difluoro-7,9-dimethyl-5H-dipyrrolo[1,2-c:2',1'-f][1,3,2]diazaborinin-4-ium-5-uide] |  | Saturation rate of labeling compared with PCI-33380 ([4]; OCI-Ly7 cells (Supplementary Figure S2)): slower saturation rate; Probe concentration at which Btk band intensity reached saturation ([4]; OCI-Ly7 cells, concentration course): 0.5 µM; Incubation time sufficient for labeling ([4]; OCI-Ly7 cells, time course): 2 h; Labeling in Jurkat cells [5]: no significant labeling; Incubation time at which fluorescent signals reached a maximum [6]: 2 h

Now from value to compound, other results behind:

Row | IC50 [1] | Compound | other results
8 | 16.7 nM | C=CC(=O)NCC(=O)Nc1cccc(Nc2ncc(Nc3cc(NC(=O)c4cccc(C(F)(F)F)c4)ccc3C)cn2)c1 [Compound 1] | 
9 | 52.9 ± 0.95 nM | C=CC(=O)N1CCC[C@H]1C(=O)Nc1cccc(Nc2ncc(NC(=O)c3cc(NC(=O)c4cccc(C(F)(F)F)c4)ccc3C)cn2)c1 [Compound 4] | 
10 | > 100 nM and 114 nM | C=CC(=O)N[C@@H](CC(C)C)C(=O)Nc1cccc(Nc2ncc(NC(=O)c3cc(NC(=O)c4cccc(C(F)(F)F)c4)ccc3C)cn2)c1 [Compound 6, (S)-N-(2-((3-(2-acrylamido-4-methylpentanamido)phenyl)amino)pyrimidin-5-yl)-2-methyl-5-(3-(trifluoromethyl)benzamido)benzamide] | 
11 | > 100 nM and 140 nM | C=CC(=O)N[C@@H](Cc1ccccc1)C(=O)Nc1cccc(Nc2ncc(NC(=O)c3cc(NC(=O)c4cccc(C(F)(F)F)c4)ccc3C)cn2)c1 [Compound 7] | 
12 | 27.4 ± 2.6 nM | C=CC(=O)N[C@@H](CO)C(=O)Nc1cccc(Nc2ncc(NC(=O)c3cc(NC(=O)c4cccc(C(F)(F)F)c4)ccc3C)cn2)c1 [Compound 8] | 
13 | 15 to 20 nM and 19.8 nM | C=CC(=O)N[C@@H](CC(N)=O)C(=O)Nc1cccc(Nc2ncc(NC(=O)c3cc(NC(=O)c4cccc(C(F)(F)F)c4)ccc3C)cn2)c1 [Compound 9] | 
14 | 15 to 20 nM and 14.7 nM | C=CC(=O)N[C@@H](CCC(=O)O)C(=O)Nc1cccc(Nc2ncc(NC(=O)c3cc(NC(=O)c4cccc(C(F)(F)F)c4)ccc3C)cn2)c1 [Compound 10] | 

From article PMC4648318, “A novel 2,5-diaminopyrimidine-based affinity probe for Bruton’s tyrosine kinase” (Scientific Reports, 2015)
